Reference: patent US8097443B2, “Nucleotidyltransferases with enhanced nucleotide triphosphate flexibility” (priority 2007, dated 2012)
Like-named read-outs stand apart in the source and are kept apart here.

Experiments:
RmlA Q83D [1] = molecular target: T1, RmlA Q83D (Salmonella typhimurium, UniProt P26393, Q83D); assay: Relative activity of RmlA mutant Q83D with alternative NTPs; assay type: biochemical, Salmonella enterica typhimurium LT2; conditions: 10 mM Glucose-1-phosphate, 0.1-10 μM enzyme, 5 mM NTP, 10 mM MgCl2, pH 8.0, 37° C.
T1 construct: using BSA as a standard, and a molecular mass of 34.6 kDa; His6 (pET28a) (N); made in house; host or cells: Escherichia coli BL21 (DE3)
T1 sequence (P26393 whole entry Q83D): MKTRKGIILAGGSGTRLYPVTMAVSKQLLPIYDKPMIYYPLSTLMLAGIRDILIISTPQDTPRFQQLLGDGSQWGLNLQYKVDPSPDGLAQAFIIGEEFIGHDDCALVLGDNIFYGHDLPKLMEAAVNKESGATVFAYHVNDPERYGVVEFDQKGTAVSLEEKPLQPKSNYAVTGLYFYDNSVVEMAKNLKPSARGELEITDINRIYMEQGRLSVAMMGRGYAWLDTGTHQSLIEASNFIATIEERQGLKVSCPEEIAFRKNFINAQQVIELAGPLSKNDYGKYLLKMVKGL
From the text: (§1) RmlA mutagenesis—RmlA mutants were generated with the Quikchange mutagenesis kit (Stratagene, La Jolla, Calif., USA) using the wt RmlA-pET28a parent expression plasmid as the template and the primers indicated in Table 1. Individual progeny plasmids were confirmed by DNA sequencing to carry the desired mutations. Driven by these mutant plasmids, the corresponding RmlA variants were subsequently expressed and purified as described above.
(§2) Enzymatic Reactions—The enzyme assay was accomplished via slight modification of previously reported methods (Jiang et al. (2000) J. Am. Chem. Soc. 122, 6803-6804; Jiang et al. (2001) Angew. Chem., Int. Ed. 40, 1502-1505; Jiang et al. (2003) Chem Bio Chem 4, 443-446; Barton et al. (2002) Proc. Natl. Acad. Sci. U.S.A. 99, 13397-13402). In a typical reaction, sugar-1-phosphate (10 mM final) and enzyme (0.01-50 μM) were mixed with NTP (0.01-40 mM) in the presence of MgCl2 ([NTP]+5 mM) and 10 U/mL inorganic pyrophosphatase (Sigma, St. Louis, Mo., USA) in 100 mM Tris HCl, pH 8.0 (20 μL final volume). Typical reactions were analyzed after 10 min at 37° C. and reaction times were extended for some slow reacting sugar/NTP combinations. Reactions were stopped by the addition of 80 μL prewarmed HPLC buffer and heat inactivation (95° C., 5 min). The amount of enzyme used and the incubation time was adjusted so that the reactions never proceeded to more than 10% turnover for kinetics, or 30% for activity assays.
(§3) Product Characterization—Reactions were analyzed via analytical HPLC (Supelcosil LC18-T; Supelco, Bellefonte, Pa.; 5 μm, 250×3 mm, 40 mM phosphoric acid, pH 6.5 with triethylamine, with a gradient of 0-10% MeOH over 20 min, 0.8 mL/min, A254). Due to earlier elution, a 5 min 0% MeOH isocratic hold was performed prior to starting the gradient for CTP-containing reactions. For nucleotide sugar products with commercially available standards, HPLC peak identity was confirmed by co-elution.

ST0452 = ST0452 (Sulfurisphaera tokodaii, UniProt Q975F9); conditions: Sulfolobus tokodaii ST0452, literature; cited from earlier work
Sequence of ST0452 (Q975F9 whole entry): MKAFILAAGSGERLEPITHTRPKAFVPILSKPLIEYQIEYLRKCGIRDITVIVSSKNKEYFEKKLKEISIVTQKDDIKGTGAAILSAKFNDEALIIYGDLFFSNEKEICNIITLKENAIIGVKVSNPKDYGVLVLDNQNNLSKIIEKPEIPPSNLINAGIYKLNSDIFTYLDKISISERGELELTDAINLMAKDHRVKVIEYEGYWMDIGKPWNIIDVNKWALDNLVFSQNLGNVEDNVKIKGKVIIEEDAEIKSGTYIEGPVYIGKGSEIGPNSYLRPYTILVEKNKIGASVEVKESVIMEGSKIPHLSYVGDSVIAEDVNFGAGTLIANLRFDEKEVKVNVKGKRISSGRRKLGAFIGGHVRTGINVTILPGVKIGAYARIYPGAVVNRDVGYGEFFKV

RmlA Q83S [2] = molecular target: T2, RmlA Q83S (Salmonella typhimurium, UniProt P26393, Q83S); assay: Relative activity of RmlA mutant Q83S with alternative NTPs; assay type: biochemical, Salmonella enterica typhimurium LT2; conditions: 10 mM Glucose-1-phosphate, 0.1-10 μM enzyme, 5 mM NTP, 10 mM MgCl2, pH 8.0, 37° C.
T2 construct: His6 (pET28a) (N); made in house; host or cells: Escherichia coli BL21 (DE3)
T2 sequence (P26393 whole entry Q83S): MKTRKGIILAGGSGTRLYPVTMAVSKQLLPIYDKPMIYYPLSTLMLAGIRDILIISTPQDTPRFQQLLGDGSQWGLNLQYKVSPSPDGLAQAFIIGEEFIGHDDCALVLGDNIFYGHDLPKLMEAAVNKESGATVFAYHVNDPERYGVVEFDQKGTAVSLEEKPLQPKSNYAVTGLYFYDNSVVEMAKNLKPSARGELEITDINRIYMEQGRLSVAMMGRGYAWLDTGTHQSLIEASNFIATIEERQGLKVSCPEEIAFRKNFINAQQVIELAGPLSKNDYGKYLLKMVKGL
From the text: as §1, §2, §3

RmlA Q83E = molecular target: T3, RmlA Q83E (Salmonella typhimurium, UniProt P26393, Q83E); assay: Relative activity of RmlA mutant Q83E with alternative NTPs; assay type: biochemical, Salmonella enterica typhimurium LT2; conditions: 10 mM Glucose-1-phosphate, 0.1-10 μM enzyme, 5 mM NTP, 10 mM MgCl2, pH 8.0, 37° C.
T3 construct: His6 (pET28a) (N); made in house; host or cells: Escherichia coli BL21 (DE3)
T3 sequence (P26393 whole entry Q83E): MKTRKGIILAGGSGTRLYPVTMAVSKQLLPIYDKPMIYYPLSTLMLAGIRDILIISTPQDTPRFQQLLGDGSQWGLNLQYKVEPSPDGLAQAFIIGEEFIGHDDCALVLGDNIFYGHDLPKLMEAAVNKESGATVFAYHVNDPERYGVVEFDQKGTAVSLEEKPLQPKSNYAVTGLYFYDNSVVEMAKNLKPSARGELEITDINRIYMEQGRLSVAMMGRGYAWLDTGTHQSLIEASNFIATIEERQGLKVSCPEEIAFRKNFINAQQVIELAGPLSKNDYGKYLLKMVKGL
From the text: as §1, §2, §3

RmlA Q83A = molecular target: T4, RmlA Q83A (Salmonella typhimurium, UniProt P26393, Q83A); assay: Relative activity of RmlA mutant Q83A with alternative NTPs; assay type: biochemical, Salmonella enterica typhimurium LT2; conditions: 10 mM Glucose-1-phosphate, 0.1-10 μM enzyme, 5 mM NTP, 10 mM MgCl2, pH 8.0, 37° C.
T4 construct: His6 (pET28a) (N); made in house; host or cells: Escherichia coli BL21 (DE3)
T4 sequence (P26393 whole entry Q83A): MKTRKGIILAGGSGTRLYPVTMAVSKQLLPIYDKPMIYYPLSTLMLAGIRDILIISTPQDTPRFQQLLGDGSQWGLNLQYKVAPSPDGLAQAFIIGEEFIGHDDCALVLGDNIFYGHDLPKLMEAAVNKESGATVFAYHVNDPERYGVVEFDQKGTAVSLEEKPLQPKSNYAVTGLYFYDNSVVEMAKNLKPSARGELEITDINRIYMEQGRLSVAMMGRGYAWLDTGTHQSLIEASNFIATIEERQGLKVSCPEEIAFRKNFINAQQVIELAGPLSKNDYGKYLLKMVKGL
From the text: as §1, §2, §3

[3] = system: UDP-sugar pyrophosphorylase (Usp); conditions: Thermus caldophilus Usp, literature; cited from earlier work
RmlA Q83N = molecular target: T5, RmlA Q83N (Salmonella typhimurium, UniProt P26393, Q83N); assay: Relative activity of RmlA mutant Q83N with alternative NTPs; assay type: biochemical, Salmonella enterica typhimurium LT2; conditions: 10 mM Glucose-1-phosphate, 0.1-10 μM enzyme, 5 mM NTP, 10 mM MgCl2, pH 8.0, 37° C.
T5 construct: His6 (pET28a) (N); made in house; host or cells: Escherichia coli BL21 (DE3)
T5 sequence (P26393 whole entry Q83N): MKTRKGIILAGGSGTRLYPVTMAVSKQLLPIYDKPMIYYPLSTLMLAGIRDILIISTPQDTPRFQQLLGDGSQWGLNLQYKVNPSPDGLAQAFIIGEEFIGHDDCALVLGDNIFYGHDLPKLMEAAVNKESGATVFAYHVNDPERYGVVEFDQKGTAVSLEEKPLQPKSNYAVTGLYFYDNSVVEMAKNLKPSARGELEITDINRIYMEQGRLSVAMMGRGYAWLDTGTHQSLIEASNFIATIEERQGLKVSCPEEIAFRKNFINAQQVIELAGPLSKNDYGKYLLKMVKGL
From the text: as §1, §2, §3

[4] = molecular target: wt RmlA (glucose-1-phosphate thymidylyltransferase) (Salmonella typhimurium, UniProt P26393)
Sequence of wt RmlA (glucose-1-phosphate thymidylyltransferase) (P26393 whole entry): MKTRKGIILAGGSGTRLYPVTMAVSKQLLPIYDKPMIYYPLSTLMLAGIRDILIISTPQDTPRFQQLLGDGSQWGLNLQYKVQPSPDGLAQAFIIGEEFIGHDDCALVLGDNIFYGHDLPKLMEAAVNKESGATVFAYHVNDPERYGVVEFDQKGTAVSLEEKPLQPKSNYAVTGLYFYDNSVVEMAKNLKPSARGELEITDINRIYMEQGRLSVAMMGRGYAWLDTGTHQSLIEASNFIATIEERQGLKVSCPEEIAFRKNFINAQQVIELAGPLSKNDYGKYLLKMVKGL
Description: as §2
as §3, with “reactions.” for “reactions. For nucleotide sugar products with commercially available standards, HPLC peak identity was confirmed by co-elution.”
(§4) Kinetic Measurements—Pseudo first order kinetics were obtained by fixing glucose-1-phosphate at a saturating concentration of 10 mM (Barton et al. (2001) Nat Struct Biol 8, 545-551), and titrating NTPs. At least eight different concentrations in the range of ¼×KM to 4×KM (0.09-20 mM for dTTP, 0.2-40 mM for others) were assayed in triplicate. […] Activities were corrected for time and enzyme concentrations, and the kinetic curves were fit to the Michaelis-Menton equation using SigmaPlot with the Enzyme Kinetics module (SPSS, Chicago, Ill., USA).

RmlA Q83S [5] = molecular target: T2, RmlA Q83S; assay: Pseudo first order kinetics of RmlA Q83S mutant; assay type: biochemical, Salmonella enterica typhimurium LT2; conditions: 10 mM glucose-1-phosphate, 0.05-25 μM enzyme, [NTP] + 5 mM MgCl2, 100 mM Tris-HCl pH 8.0, 37° C.; for Km: read-out: KM^app
From the text: (§5) Driven by these mutant plasmids, the corresponding RmlA variants were subsequently expressed and purified as described above.
as §2
as §3, with “reactions.” for “reactions. For nucleotide sugar products with commercially available standards, HPLC peak identity was confirmed by co-elution.”
as §4

RmlA Q83D [6] = molecular target: T1, RmlA Q83D; assay: Pseudo first order kinetics of RmlA Q83D mutant; assay type: biochemical, Salmonella enterica typhimurium LT2; conditions: for kcat^app / Km: 10 mM glucose-1-phosphate, 0.05-25 μM enzyme, [NTP] + 5 mM MgCl2, 100 mM Tris-HCl pH 8.0, 37° C.; for Km: read-out: KM^app
From the text: as §5, §2
as §3, with “reactions.” for “reactions. For nucleotide sugar products with commercially available standards, HPLC peak identity was confirmed by co-elution.”
as §4

| SMILES | Relative activity of Q83D as compared to wt RmlA (RmlA Q83D [1]) | utilization of NTP by ST0452 (ST0452) | Relative activity of Q83S as compared to wt RmlA (RmlA Q83S [2]) | Relative activity of Q83E as compared to wt RmlA (RmlA Q83E) | Relative activity of Q83A as compared to wt RmlA (RmlA Q83A) | turnover of glucose-1-phosphate with NTP by Usp [3] | Relative activity of Q83N as compared to wt RmlA (RmlA Q83N) | reduction in the apparent RmlA specificity constant (kcat/KM) versus dTTP [4] | kcat^app (RmlA Q83S [5]) [s⁻¹] | Km (RmlA Q83S [5]) [µM] | kcat^app (RmlA Q83D [6]) [s⁻¹] | Km (RmlA Q83D [6]) [µM] | improvement in apparent KM, Q83D versus wild-type (RmlA Q83D [6]) [fold] | kcat^app ([4]; Wild-type RmlA, 10 mM glucose-1-phosphate, 0.05-25 μM enzyme, [NTP] + 5 mM MgCl2, 100 mM Tris-HCl pH 8.0, 37° C.) [s⁻¹] | Km ([4]; read-out: KM^app, Wild-type RmlA, 10 mM glucose-1-phosphate, 0.05-25 μM enzyme, [NTP] + 5 mM MgCl2, 100 mM Tris-HCl pH 8.0, 37° C.) [µM] | increase in KM, Q83D versus wild-type (RmlA Q83D [6]) [fold] | reduction in the apparent RmlA specificity constant (kcat/KM) versus dTTP ([4]; wild-type RmlA, glucose-1-phosphate) [fold] |
| --- | --- | --- | --- | --- | --- | --- | --- | --- | --- | --- | --- | --- | --- | --- | --- | --- | --- |
| Nc1ccn([C@H]2C[C@H](O)[C@@H](COP(=O)(O)OP(=O)(O)OP(=O)(O)O)O2)c(=O)n1 [dCTP, 2′-deoxycytidine-5′-triphosphate] | 1.2 | good activity | 1.4 | 1.1 | 0.8 |  |  |  |  |  |  |  |  |  |  |  |  |
| Nc1ncnc2c1ncn2[C@@H]1O[C@H](COP(=O)(O)OP(=O)(O)OP(=O)(O)O)[C@@H](O)[C@H]1O [ATP, adenosine-5′-triphosphate] | 0.6 | could not utilize | 14.0 | 0.7 | 7.9 | turn over | 6.5 | > 15,000 fold | 0.48 ± 0.0233 | 3400 ± 600 |  |  |  |  |  |  |  |
| Nc1nc2c(ncn2[C@H]2C[C@H](O)[C@@H](COP(=O)(O)OP(=O)(O)OP(=O)(O)O)O2)c(=O)[nH]1 [dGTP, 2′-deoxyguanosine-5′-triphosphate] | 1.6 | good activity | 0.6 | 1.7 | 0.2 |  | 0.1 |  |  |  | 5 ± 0.333 | 11500 ± 1800 |  |  |  |  |  |
| Nc1ccn([C@@H]2O[C@H](COP(=O)(O)OP(=O)(O)OP(=O)(O)O)[C@@H](O)[C@H]2O)c(=O)n1 [CTP, cytidine-5′-triphosphate] | 0.2 | could not utilize | 1.5 | 0.8 | 1.3 | turn over | 0.7 |  |  |  |  |  |  |  |  |  |  |
| Nc1nc2c(ncn2[C@@H]2O[C@H](COP(=O)(O)OP(=O)(O)OP(=O)(O)O)[C@@H](O)[C@H]2O)c(=O)[nH]1 [GTP, guanosine-5′-triphosphate] | 3.7 | could not utilize | 2.2 | 2.8 | 0.7 | turn over | 0.2 |  |  |  | 0.213 ± 0.015 | 1300 ± 400 | 6.5 |  |  |  |  |
| Cc1cn([C@H]2C[C@H](O)[C@@H](COP(=O)(O)OP(=O)(O)OP(=O)(O)O)O2)c(=O)[nH]c1=O [dTTP, 2′deoxythymidine-5′-triphosphate] | 0.2 | good activity | 0.3 | 1.0 | 0.2 | turn over | 0.3 |  | 6.33 ± 0.5 | 2400 ± 600 | 3.62 ± 0.233 | 6200 ± 1200 |  | 30.83 ± 0.667 | 290 ± 40 | 21 |  |
| O=c1ccn([C@@H]2O[C@H](COP(=O)(O)OP(=O)(O)OP(=O)(O)O)[C@@H](O)[C@H]2O)c(=O)[nH]1 [UTP, uridine-5′-triphosphate] | 0.2 | good activity | 0.2 | 1.3 | 0.2 | turn over | 0.2 |  |  |  |  |  |  |  |  |  | ~12 |
| Nc1ncnc2c1ncn2[C@H]1C[C@H](O)[C@@H](COP(=O)(O)OP(=O)(O)OP(=O)(O)O)O1 [dATP, 2′-deoxyadenosine-5′-triphosphate] | 0.8 | good activity | 7.9 | 0.4 | 4.6 |  | 3.8 |  | 5.33 ± 0.333 | 1100 ± 300 |  |  |  |  |  |  |  |
